EP0462621A2, “Use of particular compounds for manufacture of pharmaceutical formulations for treatment against various parasites, mycoplasmas, other indications and other infections” (Prendergast, Patrick Thomas, priority 1990, dated 1991)

How the values were obtained:
L donovani [1] = assay: Leishmania promastigote (PRO) in-vitro screen; type: cell-based; settings: Ld.
Text: (§1) Following initial infection, the amastigote is the only form present in the mammalian host, surviving and dividing in various macrophage populations. Differences between the promastigote and amastigote in form and habitat are not matched by known biochemical dissimilarities. However, the drug susceptibility of the cultured promastigote, used in many early chemotherapy screens, contrasts markedly with that of the amastigote (see Table 1, below), most importantly to the clinically used pentavalent antimonials - sodium stibogluconate (Pentostam) and meglumine antimoniate (Glucantime).
(§2) Amastigotes of Leishmania can be cultivated in a wide range of mammalian cells, some of which may be used in in-vitro screens. These include (1) a Sticker dog sarcoma (fibroblast) cell line, (2) transformed rodent macrophage cell lines, (3) primary isolated mouse peritoneal macrophages (MP mo), and (4) human monocyte-derived macrophages (HM mo). The methods are similar for all models. Amastigote or promastigote infected cells are maintained in a medium containing the drug for 4-7 days, at 37 C for L. donovani and 33-35 C for L. major and L. mexicana. Drug activity is then assessed by counting (I) the number of infected host cells and/or (II) the number of amastigotes/100 host cells.
(§3) In-vitro and in-vivo models were used to test activities of a selection of many compounds. Those activities are summarized in Tables 1-3, showing variation between systems and species. Activities measured in the MP mo and HM mo models have shown the best correlation with results obtained in hamster and mouse models.

L major/L mexicana [2] = assay: Leishmania promastigote (PRO) in-vitro screen; type: cell-based; settings: Lm.
Text: as §1, §2, §3

L donovani [3] = assay: Amastigote-promastigote (AM-PRO) transformation, in-vitro; type: cell-based; settings: Ld.
L donovani [4] = assay: Amastigotes (AM) in cell lines, in-vitro; type: cell-based; settings: Ld., Amastigote; also: key: - no/poor activity,; + fair/moderate activity,; ++ good/excellent activity
Text: as §2, §3

L major/L mexicana [5] = assay: Amastigotes (AM) in cell lines, in-vitro; type: cell-based; settings: Lm., Amastigote; also: key: - no/poor activity,; + fair/moderate activity,; ++ good/excellent activity
Text: as §2, §3

L donovani [6] = assay: Amastigotes (AM) in mouse or human macrophages (mos), in-vitro; type: cell-based; settings: Ld., Amastigote
Text: as §2, §3

L major/L mexicana [7] = assay: as above; type: cell-based; settings: Lm., Amastigote
Text: as §2, §3

L donovani [8] = assay: Leishmania mouse/hamster models, in-vivo; settings: Ld. Also: key: - no/poor activity,; + fair/moderate activity,; ++ good/excellent activity.
Text: as §3

L major/L mexicana [9] = assay: Leishmania mouse/hamster models, in-vivo; settings: Lm. Also: key: - no/poor activity,; + fair/moderate activity,; ++ good/excellent activity.
Text: as §3

L major/L mexicana [10] = assay: Amastigote-promastigote (AM-PRO) transformation, in-vitro; type: cell-based; settings: Lm.
T. cruzi [11] = assay: T. cruzi epimastigote (EPI) in-vitro screen; type: cell-based
Protocol: (§5) In-vitro chemotherapy screens have for many years used models involving three stages of the T. cruzi life cycle: • (1) Epimastigote. Dividing populations are easily cultivated in a range of defined and semi-defined media, but are equivalent to a vector stage of the life cycle. • (2) Trypomastigote. These are isolated from a rodent host and can be maintained as a non-dividing population for 24-48 h in media. • (3) Amastigote. Dividing populations can be cultivated in muscle cells, fibroblasts and macrophages, following infection with trypomastigotes. After the initial infection, there is normally a period of 4-5 days during which the amastigotes divide before transforming, via the epimastigote stage, back to trypomastigotes which escape from the cell. Drug activity is measured during this 4-5 day period. A dividing host cell population, low infection rate, and the presence of trypomastigotes in the overlay can complicate the interpretation of results.

T. cruzi [12] = assay: T. cruzi trypomastigote (TRY) in-vitro screen; type: cell-based
Protocol: as §5

T. cruzi [13] = assay: T. cruzi intracellular amastigote (AM) in-vitro screen; type: cell-based
Protocol: Dividing populations can be cultivated in muscle cells, fibroblasts and macrophages, following infection with trypomastigotes. After the initial infection, there is normally a period of 4-5 days during which the amastigotes divide before transforming, via the epimastigote stage, back to trypomastigotes which escape from the cell. Drug activity is measured during this 4-5 day period. A dividing host cell population, low infection rate, and the presence of trypomastigotes in the overlay can complicate the interpretation of results.
Intracellular amastigote models can use a range of muscle (skeletal and cardiac) and fibroblast (e.g. HeLa, HePa) cell lines, macrophages, and chick embryo cells. […] To overcome the problems of overgrowth of the monolayer and a low percentage of infected cells, often associated with the use of cell lines, irradiated rat L6 myoblasts are used.

T. cruzi [14] = assay: T. cruzi mouse model, in-vivo
Text: as §3

[15] = tested on: T.b. brucei, T.b. gambiense and T.b. rhodesiense; assay: Procyclic trypomastigote (TRY) in-vitro screen; type: cell-based; also: key: - no/poor activity,; + fair/moderate activity,; ++ good/excellent activity
Protocol: (§4) Primary screening for new trypanocides has made extensive use of rodent systems, in which host survival time is a simple indicator of drug activity. In-vitro screens have used a variety of trypomastigote types (see Table 3, below). […] Most early in-vitro screens employed a short test in which bloodstream trypomastigotes were isolated from an infected rodent and maintained for up to 24 h in a simple drug-containing media. Two significant modifications of this technique include maintaining isolated bloodstream trypomastigotes in drug-containing media for 3-4 hours at 37° C in micro-titre plates and their subsequent viability assessed by the uptake of radiolabelled precursors or motility and infectivity to mice.
as §3

[16] = tested on: T.b. brucei, T.b. gambiense and T.b. rhodesiense; assay: Cultivated bloodstream trypomastigote (TRY) in-vitro screen; type: cell-based
Text: Culture systems developed in the last decade have used mammalian cell feeder layers to support the growth of dividing populations of bloodstream trypomastigotes of T. brucei spp. Some of these systems have been used in chemotherapy studies, including; (1) bovine fibroblast culture - T. brucei models to test some standard and experimental compounds, (2) murine bone marrow culture - T.b. gambiense model to screen inosine analogues and platinum and hypolipidemic compounds, and (3) Microtus embryonic fibroblast culture (MEF) - T.b. rhodesiense model to test standard and experimental drugs. These systems give a good indication of in-vivo activity (see Table 3). They measure activity against dividing cells rather than specific macromolecular synthesis pathways and can be readily established in micro-titre plates. The MEF and bone marrow cell feeder layers can be used to grow a range of strains of T. brucei spp., offering the possibility of examining variations in drug susceptibility and resistance between strains. The presence of a feeder layer, however, limits the opportunities for the automation of these systems.
as §3

[17] = tested on: T.b. brucei, T.b. gambiense and T.b. rhodesiense; assay: African trypanosomiasis mouse model, in-vivo
Protocol: as §4, §3

[18] = tested on: T.b. brucei, T.b. gambiense and T.b. rhodesiense; assay: Isolated bloodstream trypomastigote (TRY) in-vitro screen; type: cell-based
Protocol: as §4
In-vitro studies on isolated bloodstream trypomastigotes were also used in the rational biochemical approaches towards the chemotherapy of T. brucei infections involving inhibitors of carbohydrate catabolism salicyl hydroxamic acid plus glycerol), of polyamine synthesis (methylgyoxal bis-guanylhydrazone and - DFMO), and of surface coat glycoprotein synthesis (Tunicamycin). In these studies, activity of the compounds are shown in-vitro and in-vivo, whereas the sensitivity of isolated bloodstream trypomastigotes to toxic oxygen radicals generated by naphthoquinones was not shown by the parasites in mice. The activity of the standard anti-trypanosomals-melarsoprol, pentamidine and suramin and tested compounds according to the present invention in in-vitro systems is shown in Table 3.
as §3

Row | SMILES | Activity, PRO (L donovani [1]) | Activity, PRO (L major/L mexicana [2]) | Activity, AM-PRO transform-ation (L donovani [3]) | Activity, AM in cell lines (L donovani [4]) | Activity, AM in cell lines (L major/L mexicana [5]) | Activity, AM in mouse or human mos (L donovani [6]) | Activity, AM in mouse or human mos (L major/L mexicana [7]) | Activity, mouse/ hamster models (L donovani [8]) | Activity, mouse/ hamster models (L major/L mexicana [9]) | Activity, AM-PRO transform-ation (L major/L mexicana [10]) | activity, EPI (T. cruzi [11]; T. cruzi strain MR) | activity, EPI (T. cruzi [11]; T. cruzi strain Sonya) | activity, EPI (T. cruzi [11]; T. cruzi strain Y) | activity, TRY (T. cruzi [12]; T. cruzi strain Sonya) | activity, TRY (T. cruzi [12]; T. cruzi strain Y) | activity, intracellular AM (T. cruzi [13]; T. cruzi strain Sonya) | activity, intracellular AM (T. cruzi [13]; T. cruzi strain Y) | activity, mouse model (T. cruzi [14]; T. cruzi strain Sonya) | activity, mouse model (T. cruzi [14]; T. cruzi strain Y) | activity, procyclic TRY [15] | other results
1 | OC[C@H]1O[C@@H](n2cnc3c(NCc4ccccc4)ncnc32)[C@H](O)[C@@H]1O [N6-Benzyladenosine, N^6-benzyladenosine] | + + | + + | + + | - | + | + | + | - | - | + + | +(Y,MR, Sonya) | +(Y,MR, Sonya) | +(Y,MR, Sonya) | + (Y,Sonya) | + (Y,Sonya) | + (Y,Sonya) | + (Y,Sonya) | +(Y)+(Sonya) | +(Y)+(Sonya) | + + | activity, cultivated bloodstream TRY [16]: + +; activity, mouse model [17]: + +
2 | CC(C)=CCNc1ncnc2c1ncn2[C@@H]1O[C@H](COP(=O)(O)O)[C@@H](O)[C@H]1O [N6-Isopentenyl Adenosine-5'monophosphate, N^6-(Δ^2-isopentenyl) adenosine-5'-monophosphate] | + + | - | + | - | + | + | + + | + | - | + + | +(Y,MR, Sonya) | +(Y,MR, Sonya) | +(Y,MR, Sonya) | ++(Y,Sonya) | ++(Y,Sonya) | ++(Y,Sonya) | ++(Y,Sonya) | + | ++ | + + | activity, isolated bloodstream TRY [18]: +; activity, cultivated bloodstream TRY [16]: +; activity, mouse model [17]: +
3 | OC[C@H]1O[C@@H](n2cnc3c(NCc4ccco4)ncnc32)[C@H](O)[C@@H]1O [Furfuryladenosine] | + + | + + | + + | - | + | + | + + | + | + | + + | ++(Y,MR, Sonya) | ++(Y,MR, Sonya) | ++(Y,MR, Sonya) | + (Y,Sonya) | + (Y,Sonya) | + (Y,Sonya) | + (Y,Sonya) | + | ++ | + | activity, isolated bloodstream TRY [18]: + +; activity, cultivated bloodstream TRY [16]: +
